Assay results: patent US20120258974A1, “USE OF A2B ADENOSINE RECEPTOR ANTAGONISTS FOR TREATING HEART FAILURE AND ARRHYTHMIA IN POST-MYOCARDIAL INFARCTION PATIENTS” (GILEAD SCIENCES, INC., priority 2011, published 2012)
Entries after “also recorded” stand apart in the source; their conditions may differ.

Columns and labels:
[1] = tested on: primary human cardiac fibroblasts (HCF); assay: NECA-induced release of IL-6, collagen, ST-2, PAPPA and expression of fibrotic markers in human cardiac fibroblasts (Example 2); assay type: cell-based; conditions: antagonist with NECA
Method: Real-time RT-PCR was performed as published using Stratagene PCR equipment (La Jolla, Calif.). Zhong H., et al., “A2B adenosine receptors increase cytokine release by bronchial smooth muscle cells,” American Journal of Respiratory Cell and Molecular Biology, 30(1): 118-125 (2004).
Expression of AdoR, α-smooth muscle actin and α-1 pro-collagen was determined using real-time RT-PCR. The concentration of IL-6, soluble ST-2 and PAPPA (Pregnancy-associated plasma protein A) in the cell supernatants were measured using ELISA, and the concentration of soluble collagen were determined using Sircol™ collagen assay.

[2] = tested on: caspase-1; assay: Caspase-1 activity in heart tissue 72 hours after surgery (Example 4); assay type: in vivo, mouse; conditions: 4 mg/kg i.p. twice daily from coronary ligation
Method: Adult out-bred male CD1 mice (8-12 weeks of age) were supplied by Harlan Sprague Dawley (Indianapolis, Ind.). The experiments were conducted under the guidelines of laboratory animals for biomedical research published by National Institutes of Health (No. 85-23, revised 1996). The study protocol was approved by the Virginia Commonwealth University Institutional Animal Care and Use Committee. Experimental AMI was induced by permanent coronary artery ligation in order to induce a large non-reperfused infarct involving approximately 30% of the left ventricle and leading to an ischemic dilated cardiomyopathy (Mezzaroma et al. Proc Natl Acad Sci 2011—in press and Abbate et al. Circulation 2008; 117:2670-83). […]
An additional subset of mice was sacrificed 72 hours after surgery (N=4-6 per treatment group). […] The tissue activity of caspase-1 was determined by cleavage of a fluorogenic substrate (CaspACE, Promega, Madison, Wis.) (Abbate et al. Circulation 2008; 117:2670-83). […] Fluorescence was measured after 60 minutes and was expressed as arbitrary fluorescence units produced by one microgram of sample per minute (fluorescence/μg/min) and calculated as fold change compared to the caspase-1 activity in homogenates of the hearts of sham-operated mice.

[3] = tested on: acute myocardial infarction in the mouse (male ICR mice, coronary artery ligation); assay: Cardiac remodeling after coronary artery ligation in ICR mice (Example 3); assay type: in vivo
Method: Male ICR mice underwent coronary artery ligation or sham surgery (N=8-10 per group). A selective A2B antagonist, Compound A 4 mg/kg in a formulated dosing suspension, every 12 hours i.p., was given starting immediately after the surgery and continued for 14 days. Transthoracic echocardiography was performed prior to surgery and then 7, 14 and 28 days later. A subgroup of mice was sacrificed 72 hours after surgery and the activity of caspase-1, a key proinflammatory mediator, was measured in the cardiac tissue.

[4] = echocardiography, 4 mg/kg i.p. every 12 hours for 14 days, vs vehicle

## CCCn1c(=O)c2[nH]c(-c3cnn(Cc4cccc(C(F)(F)F)c4)c3)nc2n(CC)c1=O [Compound A, 3-ethyl-1-propyl-8-(1-(3-(trifluoromethyl)benzyl)-1H-pyrazol-4-yl)-1H-purine-2,6(3H,7H)-dione]
[1]
  effect of NECA on expression of α-1 pro-collagen: completely abolished
  effect of NECA on expression of α-smooth muscle actin: completely abolished
  effect of NECA on release of IL-6: completely abolished
  effect of NECA on release of PAPPA: completely abolished
  effect of NECA on release of ST-2: completely abolished
  effect of NECA on release of collagen: completely abolished
[2]
  caspase-1 activation / activity in the heart during AMI: prevented; also recorded: nearly complete reduction
[3]; 4 mg/kg i.p. every 12 hours for 14 days, vehicle 42%
  mice that died during the 4 weeks post-surgery: 25%
[3]; 72 hours after surgery, 4 mg/kg i.p. every 12 hours, vs vehicle
  caspase-1 activity in the cardiac tissue: significantly reduced
[3]; [4]
  LV ejection fraction: increased
  end-diastolic diameter: significantly reduced
  myocardial performance index: significantly reduced
